Assays:
PP1c = experiment: Protein phosphatase assay with 32P-MLC20, native PP1c; assay type: biochemical; conditions: native PP1c from rabbit skeletal muscle; 1 µM 32P-MLC20; 10 min preincubation; mean ± SD
Method: (§1) Protein phosphatase activity of either skeletal muscle PP1c or PP2Ac (1.9–2.2 nM), or rPP1cα or rPP1cδ (2.71–3.72 nM), or FLAG-MYPT1-PP1c (∼9 nM) was assayed at 30 °C in absence or presence of polyphenol compounds (0.1–100 µM) in 20 mM Tris/HCl (pH 7.4), 0.1% 2-mercaptoethanol (30 µL). The purified phosphatase samples or HeLa lysates in 300-fold dilution (1.8–3.6 µg/ml) in the presence or absence of 2 µM I2 were preincubated with increasing concentration of the polyphenol compounds (0–100 µM) for 10 min then the reaction was started by the addition of 1 µM ^32P-MLC20 and incubated for 10 min. Polyphenol-treated HeLa cells were washed then lysed in 50 mM Tris/HCl (pH 8.0), 150 mM NaCl, 1% (V/V) Triton X-100, 0.15% (w/v) protease inhibitor cocktail. The phosphatase activity was assayed with 1 µM ^32P-MLC20 for 30 s in 3-fold final dilution (0.24–0.43 mg/ml). The reactions were terminated by the addition of 200 µL of 10% trichloroacetic acid and 200 µL of 6 mg/mL BSA solution. The samples were centrifuged for 3 min at 10,000 rpm and the supernatants (370 µL) were transferred into scintillation vials and the radioactivity of the released ^32Pi was determined in Tri-Carb 2800TR scintillation counter.
(§2) The ellagitannins (Figure 1) assayed on the activity of PP1c or PP2Ac in this study are similar to PGG in composition, but they differ structurally in two important aspects: (i) all of them include hexahydroxydiphenoyl unit linked in various positions, except for pedunculagin which includes two of these linkages; (ii) tellimagrandin I, pedunculagin, and praecoxin B have free glycosidic hydroxyls, while GHG has an unmodified hydroxyl at position 3 of the glucopyranose ring. […] Inhibition of the phosphatase activity by ellagitannins in HeLa cell lysate was also assessed. First, we determined the activity of PP1 and PP2A in the lysates using I2 to inhibit PP1, and low concentration of OA (2 nM) to suppress PP2A specifically, in order to determine the contribution of PP1 and PP2A to the phosphatase activity of lysates (Figure 2(E)).
(§3) Figure 2. The effect of ellagitannins on the activity of PP1 and PP2A. Ellagitannins (0.1–100 µM) were preincubated with the phosphatase samples for 10 min and the phosphatase activity was determined in triplicates with 1 µM ^32P-MLC20 substrate as described in “Materials and methods” section. […] The effect of tellimagrandin I on the activity of rPP1cα (^) and rPP1cδ (●) (C), or FLAG-MYPT1-PP1cδ (▼) (D), or on the phosphatase activity of HeLa lysate in the presence of I2 (□) (F). The effect of I2 and OA on the phosphatase activity of HeLa lysate (E). Phosphatase activity in the absence of ellagitannins, I2 or OA was taken as 100%. Data are means ± SD (n = 3–5).

PP2Ac = experiment: Protein phosphatase assay with 32P-MLC20, native PP2Ac; assay type: biochemical; conditions: native PP2Ac from rabbit skeletal muscle; 1 µM 32P-MLC20; 10 min preincubation; mean ± SD
Method: as §1, §2, §3

HeLa lysate = experiment: Phosphatase activity of HeLa cell lysate (32P-MLC20); assay type: biochemical, human; conditions: HeLa lysate in 300-fold dilution; 1 µM 32P-MLC20; mean ± SD
Method: as §1, §2, §3

rPP1cα [1] = molecular target: T1, rPP1cα (Homo sapiens, UniProt P62136); experiment: Protein phosphatase assay, recombinant rPP1cα; assay type: biochemical; conditions: purified recombinant FLAG-tagged PP1cα
T1 construct: FLAG; made in house
T1 sequence (P62136 whole entry): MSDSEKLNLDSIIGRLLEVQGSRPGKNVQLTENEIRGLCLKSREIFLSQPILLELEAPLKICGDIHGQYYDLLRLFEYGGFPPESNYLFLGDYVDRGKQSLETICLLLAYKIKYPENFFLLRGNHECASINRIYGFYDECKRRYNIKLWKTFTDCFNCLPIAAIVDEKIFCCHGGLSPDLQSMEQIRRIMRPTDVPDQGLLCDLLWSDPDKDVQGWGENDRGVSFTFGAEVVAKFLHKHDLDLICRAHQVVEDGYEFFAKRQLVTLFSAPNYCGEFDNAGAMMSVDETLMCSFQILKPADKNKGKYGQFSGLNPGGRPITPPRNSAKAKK
Method: as §1, with “The reactions were terminated by the addition of 200 µL of 10% trichloroacetic acid and 200 µL of 6 mg/mL BSA solution.” left out
(§4) Figure 2. […] Ellagitannins (0.1–100 µM) were preincubated with the phosphatase samples for 10 min and the phosphatase activity was determined in triplicates with 1 µM ^32P-MLC20 substrate as described in “Materials and methods” section. […]

rPP1cδ [2] = molecular target: T2, rPP1cδ (Homo sapiens, UniProt P62140); experiment: Protein phosphatase assay, recombinant rPP1cδ; assay type: biochemical; conditions: purified recombinant hexahistidine-tagged PP1cδ
T2 construct: hexahistidine; made in house
T2 sequence (P62140 whole entry): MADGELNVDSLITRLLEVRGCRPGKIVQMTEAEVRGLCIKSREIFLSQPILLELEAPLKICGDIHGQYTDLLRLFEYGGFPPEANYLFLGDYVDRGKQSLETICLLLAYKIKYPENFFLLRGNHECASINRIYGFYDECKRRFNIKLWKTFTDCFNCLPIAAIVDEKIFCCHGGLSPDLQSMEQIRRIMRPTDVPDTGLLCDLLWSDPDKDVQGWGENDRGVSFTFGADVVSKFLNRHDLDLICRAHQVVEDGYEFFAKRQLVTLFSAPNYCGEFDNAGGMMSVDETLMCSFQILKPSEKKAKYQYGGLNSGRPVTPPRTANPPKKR
Method: as §1, with “The reactions were terminated by the addition of 200 µL of 10% trichloroacetic acid and 200 µL of 6 mg/mL BSA solution.” left out
as §4

FLAG-MYPT1-PP1cδ complex = molecular target: T3, FLAG-MYPT1-PP1cδ complex (Homo sapiens, UniProt P62140); experiment: Protein phosphatase assay, myosin phosphatase holoenzyme; assay type: biochemical; conditions: holoenzyme ~9 nM
T3 construct: its associated proteins (such as PP1cδ) were isolated from cell lysates; expressed in transfected cells; host or cells: tsA201 cells
T3 sequence (P62140 2-327 limits assumed): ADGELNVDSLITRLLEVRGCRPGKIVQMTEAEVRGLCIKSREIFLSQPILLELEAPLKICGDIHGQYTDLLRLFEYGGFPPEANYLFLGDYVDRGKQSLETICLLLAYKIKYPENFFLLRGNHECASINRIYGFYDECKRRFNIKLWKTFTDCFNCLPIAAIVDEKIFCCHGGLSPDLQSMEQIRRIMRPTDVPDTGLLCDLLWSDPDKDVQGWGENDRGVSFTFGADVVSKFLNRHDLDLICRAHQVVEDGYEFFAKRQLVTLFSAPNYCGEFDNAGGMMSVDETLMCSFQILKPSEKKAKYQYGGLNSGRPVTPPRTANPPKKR
T3 sequence (O14974 whole entry partner): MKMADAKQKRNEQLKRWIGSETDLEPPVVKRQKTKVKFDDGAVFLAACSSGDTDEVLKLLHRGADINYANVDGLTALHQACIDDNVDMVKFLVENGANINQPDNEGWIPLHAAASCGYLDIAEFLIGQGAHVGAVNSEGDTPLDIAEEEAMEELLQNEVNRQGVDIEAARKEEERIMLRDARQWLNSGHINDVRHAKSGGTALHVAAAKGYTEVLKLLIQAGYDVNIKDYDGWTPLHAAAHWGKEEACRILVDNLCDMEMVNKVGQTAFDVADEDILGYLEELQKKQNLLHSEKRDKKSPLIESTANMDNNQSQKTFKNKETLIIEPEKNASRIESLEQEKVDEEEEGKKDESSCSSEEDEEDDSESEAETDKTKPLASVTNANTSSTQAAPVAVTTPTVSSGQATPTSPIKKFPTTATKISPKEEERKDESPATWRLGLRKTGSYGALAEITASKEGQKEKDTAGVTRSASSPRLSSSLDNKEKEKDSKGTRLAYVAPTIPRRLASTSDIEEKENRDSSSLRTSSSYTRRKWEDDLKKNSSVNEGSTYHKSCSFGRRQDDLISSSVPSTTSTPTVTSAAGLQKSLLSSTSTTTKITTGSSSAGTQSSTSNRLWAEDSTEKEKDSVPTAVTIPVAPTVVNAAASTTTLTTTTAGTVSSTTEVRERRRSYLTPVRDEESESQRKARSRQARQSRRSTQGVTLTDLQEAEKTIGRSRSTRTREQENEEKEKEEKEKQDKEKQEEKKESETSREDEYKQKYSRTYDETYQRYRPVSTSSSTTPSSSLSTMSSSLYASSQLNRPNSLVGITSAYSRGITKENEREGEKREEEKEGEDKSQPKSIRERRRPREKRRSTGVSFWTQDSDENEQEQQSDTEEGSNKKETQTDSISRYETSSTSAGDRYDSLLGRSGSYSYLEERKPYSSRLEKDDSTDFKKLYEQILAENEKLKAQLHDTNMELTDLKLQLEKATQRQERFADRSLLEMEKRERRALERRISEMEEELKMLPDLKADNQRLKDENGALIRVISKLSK
Method: as §1, with “The reactions were terminated by the addition of 200 µL of 10% trichloroacetic acid and 200 µL of 6 mg/mL BSA solution.” left out
as §4

PP2A = experiment: Phosphatase activity of HeLa lysate in the presence of I2 (activity due to PP2A); assay type: biochemical, human; conditions: PP1 suppressed by 2 µM I2; up to the highest concentration applied (100 µM)
Method: as §1, with “Polyphenol-treated HeLa cells were washed then lysed in 50 mM Tris/HCl (pH 8.0), 150 mM NaCl, 1% (V/V) Triton X-100, 0.15% (w/v) protease inhibitor cocktail. The phosphatase activity was assayed with 1 µM ^32P-MLC20 for 30 s in 3-fold final dilution (0.24–0.43 mg/ml). The reactions were terminated by the addition of 200 µL of 10% trichloroacetic acid and 200 µL of 6 mg/mL BSA solution.” left out
as §2, with “First, we determined the activity of PP1 and PP2A in the lysates using I2 to inhibit PP1, and low concentration of OA (2 nM) to suppress PP2A specifically, in order to determine the contribution of PP1 and PP2A to the phosphatase activity of lysates (Figure 2(E)).” left out

rPP1cα [3] = molecular target: T1, rPP1cα; experiment: Isothermal titration calorimetry (ITC); assay type: binding; conditions: 25 °C
Method: Isothermal titration calorimetry (ITC) experiments were carried out at 25 °C by a MicroCal ITC200 instrument. The assay buffer contains 25 mM Tris/HCl (pH 8.0), 100 mM NaCl, and 1 mM DTT. rPP1cα was dialysed in the assay buffer two times for two hours freshly prior to measurements and diluted to 5–10 µM then transferred into the sample cell of the calorimeter. Tellimagrandin I was diluted to 60–100 µM in the assay buffer and measured into the syringe. 18 times 2 µL ligand was then injected into the cell at a stirring rate of 300 rpm. The reference power was 5 µcal/sec and the assay buffer was loaded in the reference cell. The titration data were analysed with MicroCal ITC-Origin software using one sets of site model to obtain binding parameters of ligand-protein interaction.
(§5) Figure 3. […] The changes in either, the intrinsic fluorescence of unlabelled rPP1cα upon binding to tellimagrandin I and PGG, or changes in fluorescent signal from rPP1cα extrinsically labelled with NT647 dye upon binding with EGCG, were determined at a range of concentration of polyphenols, and the fractions bound are presented. Data points are means ± SD (n = 3).

rPP1cδ [4] = molecular target: T2, rPP1cδ; experiment: Surface plasmon resonance (SPR); assay type: binding; conditions: rPP1cδ immobilised on CM5 chip; 1:1 interaction model
rPP1cα [5] = molecular target: T1, rPP1cα; experiment: Microscale thermophoresis (MST); assay type: binding; conditions: unlabelled rPP1cα, intrinsic fluorescence (NT.LabelFree)
Method: as §5

HeLa cells [6] = experiment: HeLa cell viability, Alamar-blue assay; assay type: cell-based, human; conditions: 24 h incubation, serum free; 0-50 µM tested
Method: HeLa cells and tsa201 cells were cultured as recommended by the supplier. Prior to treatments HeLa cells were serum starved in MEM medium supplemented with 2 mM L-glutamine for 17 h. For phosphatase activity assay cells were treated with increasing concentration of polyphenol compounds (1–50 µM) for 1 h. To assess cell viability by Alamar-blue assay serum starved cells were treated with ellagitannins (1–50 µM) for 24 h in serum free MEM medium. The media was exchanged for resazurin (20 µM) containing serum free media and the cells were incubated for 2 h to enhance resorufin formation by the viable cells. The emission of resorufin was measured by a fluorimeter at 620 nm.
Figure 4. Distinct influence of ellagitannins on the survival and phosphatase activity of HeLa cells. The effect of tellimagrandin I and mahtabin A was assayed on the survival (A) and the phosphatase activity (B) of HeLa cells in 0–50 µM concentration range as detailed in Materials and methods. The cell survival and the phosphatase activity in the absence of ellagitannins were taken as 100%. Data represent means ± SD (n = 3). ANOVA *p < .05, **p < .01, ***p < .001, n.s.: not significant.

HeLa cells [7] = experiment: Phosphatase activity of polyphenol-treated HeLa cells; assay type: cell-based, human; conditions: 1 h incubation; 0-50 µM tested
Method: as §1
HeLa cells and tsa201 cells were cultured as recommended by the supplier. […] The emission of resorufin was measured by a fluorimeter at 620 nm. […]

SNAP-25^Thr138 = experiment: Phosphorylation of SNAP-25 Thr138 in cortical synaptosomes (Western blot); assay type: cell-based, mouse; conditions: synaptosomes treated 45 min at 30 °C; ellagitannins 1-100 µM, TMC 10 µM
Method: (§6) Preparation of synaptosomes from murine brain cortex was carried out as described previously. Functional synaptosomes were kept in Krebs buffer (118 mM NaCl, 5 mM KCl, 25 mM NaHCO3, 1 mM MgCl2, 10 mM D-glucose, pH 7.4). After preparation, synaptosomes were treated with either tellimagrandin I or mahtabin A in 1, 10 or 100 µM final concentrations, or with 10 µM tautomycetin (TMC) for 45 min at 30 °C. After the treatments synaptosomes were applied for exocytosis assay or were lysed and the protein lysates were subjected to Western blot. For exocytosis assay an already established protocol[25] was used. FM 2–10 water-soluble styryl dye was incorporated first into the outer leaflet of synaptosome membrane, then into the synaptosomes. Exocytosis was induced by addition of 30 mM KCl to the synaptosomes. The fluorescent intensity of FM 2–10 styryl dye negatively correlated with the extent of synatposomal exocytosis and was measured by Fluoroskan FL (excitation: 488 nm, emission: 540 nm). Western blot of synaptosome proteins was carried out as described previously[24]^,[25].
Figure 5. […] E: Representative Western blot with anti- SNAP-25^pThr138 specific antibody. F: Relative changes in the amount of SNAP-25^pThr138 determined by densitometry of the Western blots normalised on the bands obtained for the loading controls. Data are means ± SD (n = 3). ANOVA *p < .05, **p < .01, ***p < .001, n.s.: not significant.

[8] = system: mouse cortical synaptosomes; experiment: KCl induced exocytosis of cortical synaptosomes (FM 2-10 dye); assay type: cell-based; conditions: 30 mM KCl; FM 2-10 fluorescence; 45 min treatment
Method: as §6
Figure 5. […] E: Representative Western blot with anti- SNAP-25^pThr138 specific antibody. F: Relative changes in the amount of SNAP-25^pThr138 determined by densitometry of the Western blots normalised on the bands obtained for the loading controls. Data are means ± SD (n = 3). […]

Structure (SMILES) | IC50 (PP1c) [µM] | IC50 (PP2Ac) [µM] | IC50 (HeLa lysate) [µM] | IC50 (rPP1cα [1]) [µM] | IC50 (rPP1cδ [2]) [µM] | IC50 (FLAG-MYPT1-PP1cδ complex) [µM] | Inhibition of phosphatase activity due to PP2A in HeLa lysate (PP2A) | Ka (ITC) (rPP1cα [3]) | S (ITC) (rPP1cα [3]) [kcal/mol/K] | N (ITC) (rPP1cα [3]; binding stoichiometry) | Kd (rPP1cα [3]; one sets of site model) [µM] | Kd (rPP1cδ [4]) [µM] | Kd (rPP1cα [5]) [µM] | Effect on viability (survival) of HeLa cells (HeLa cells [6]) | Effect on phosphatase activity of HeLa cells (HeLa cells [7]) | Effect on phosphorylation level of SNAP-25^Thr138 (SNAP-25^Thr138) | Effect on KCl induced synaptosomal exocytosis [8]
O=C(O[C@H]1[C@@H]2OC(=O)c3cc(O)c(O)c(O)c3-c3c(cc(O)c(O)c3O)C(=O)OC[C@H]2OC(O)[C@@H]1OC(=O)c1cc(O)c(O)c(O)c1)c1cc(O)c(O)c(O)c1 (stereo partly drawn) [tellimagrandin I] | 0.2 ± 0.02 | 19.5 ± 8.6 | 4.46 ± 0.95 | 0.23 ± 0.05 | 0.13 ± 0.02 | 0.11 ± 0.02 | slightly | 4.68 ± 1.02x10^6 M^−1 | 0.0036 | 1.16 ± 0.03 | 0.23 | 0.31 | 1.78 ± 0.59 | suppressed the viability of HeLa cells dramatically | partially reduced the phosphatase activity | had no any effect | without any influence
O=C1OC[C@H]2OC(O)[C@@H]3OC(=O)c4cc(O)c(O)c(O)c4-c4c(cc(O)c(O)c4O)C(=O)O[C@H]3[C@@H]2OC(=O)c2cc(O)c(O)c(O)c2-c2c1cc(O)c(O)c2O (stereo partly drawn) [pedunculagin] | ~2.47 | > 100 | 33.9 ± 4.54 |  |  |  |  |  |  |  |  |  |  |  |  |  | 
O=C(OC[C@H]1O[C@@H](OC(=O)c2cc(O)c(O)c(O)c2)[C@@H]2OC(=O)c3cc(O)c(O)c(O)c3-c3c(cc(O)c(O)c3O)C(=O)O[C@H]2[C@@H]1OC(=O)c1cc(O)c(O)c(O)c1)c1cc(O)c(O)c(O)c1 [mahtabin A] | 0.41 ± 0.18 | 33.8 ± 8.44 | 6.19 ± 0.37 |  |  |  |  |  |  |  |  |  |  | without effect | without effect | increased the amount of phosphorylated SNAP-25^Thr138 | suppressed exocytosis
O=C(OC[C@H]1OC(O)[C@@H]2OC(=O)c3cc(O)c(O)c(O)c3-c3c(cc(O)c(O)c3O)C(=O)O[C@H]2[C@@H]1OC(=O)c1cc(O)c(O)c(O)c1)c1cc(O)c(O)c(O)c1 (stereo partly drawn) [praecoxin B] | 0.79 ± 0.11 | 63.9 ± 5.52 | 6.97 ± 1.12 |  |  |  |  |  |  |  |  |  |  |  |  |  | 

— article PMC6352937, “Inhibition of protein phosphatase-1 and -2A by ellagitannins: structure-inhibitory potency relationships and influences on cellular systems” (Journal of Enzyme Inhibition and Medicinal Chemistry, 2019)
